Assay results: patent publication US9139551B2, “Preparation of a new class of water-soluble ammonium 2,3-dihydroxy-5-((2R,3R)-3,5,7-trihydroxy-4-oxochroman-2-yl) phenolates and their biological activity of alcohol elimination” (priority 2014, dated 2015)
Marks after values point to notes of the source that are not given here.

Legend:
Balb/C mice [1] = experiment: Anti-alcoholism test (agent 30 min after alcohol); assay type: in vivo
Description: Anti-Alcoholism Tests • Groups design and treatment before experiment are as the same as that in Deintoxication test. […]

Balb/C mice [2] = experiment: Deintoxication test (agent 30 min before alcohol)
mice [3] = experiment: Acute toxicity, intragastric administration (maximum tolerated dose)
mice [4] = experiment: Acute toxicity, intraperitoneal administration (mortality, LD50, body weight, dietary); assay type: in vivo; settings: for Dead number: 20 mice; for Dead number / mortality: 7 days
Description: Acute Toxicity • Compounds PDHM/TDHM.
140 mice were divided into 7 groups (n=20), each group include 10 males and 10 females, they were treated with different concentrations of dosages and observed for 7 days. Specific experimental groups and experimental results were noted below. Note: Section 1-6 group compound are PDHM groups, and group 7 is a negative control group.
140 mice were divided into 7 groups (n=20), each group include 10 males and 10 females, they were treated with different concentrations of dosage and observed for 7 days. Note: Section 1-6 group compound are PDHM groups, and group 7 is a negative control group.

Balb/C mice [5] = experiment: Plasma EtOH concentration assay; assay type: in vivo; settings: intragastric 2 mg/kg
Description: Plasma EtOH Concentration Assay. • Blood samples from the tail vein of mice at different time points (0, 15, 30, 45, 60, 90, 120, 240, 480 and 720 minutes) after EtOH (30% ethanol, 0.2 ml/kg bw) or TDHM (2 mg/kg bw), PDHM (2 mg/kg bw) or DHM (2 mg/kg bw) gavage were collected for plasma EtOH concentrations (plasma [EtOH]) assays. (“BW” or “bw”: body weight) • Briefly, the Balb/C mice were put into a restraint tube and the tail was warmed at 37° C. The tail vein at the tip of the tail was punched with a sharp blade. Approximately 0.2 ml venous blood was dropped to a capillary blood collection tube containing lithium heparin (Ram Scientific). Blood samples were centrifuged at 2500 rpm for 20 min. The supernatant was collected and stored at −80° C. until assay. The EtOH content of each blood sample was measured in duplicate along with EtOH standards using the alcohol oxidase reaction procedures (EnzyChrom™ Ethanol Acid Assay Kit, ECET-100) (Liang et al., 2007). The sample preparations were the same as described above.

Balb/C mice [6] = experiment: Climbing net test; assay type: in vivo; settings: 2 mg/kg gavage 30 min before alcohol
Description: Climbing Net Test • Groups design and treatment before experiment are as the same as that in deintoxication test. […] 30 minutes later all mice administrated alcohol (liquid Erguotou, ethonol concentration was diluted to 30%) 0.2 mL/kg BW and placed on a vertical metal net and measured the time when mice climbed on net.

[7] = 2 mg/kg gavage 30 min after 30% ethanol
[8] = 2 mg/kg gavage 30 min after 30% ethanol, 20 mice
[9] = 2 mg/kg gavage 30 min before 30% ethanol
[10] = 2 mg/kg gavage 30 min before 30% ethanol, 20 mice
[11] = agents intragastric 30 minutes before drinking

## triethylammonium 2,3-dihydroxy-5-((2R,3R)-3,5,7-trihydroxy-4-oxochroman-2-yl)phenolate [TDHM]
Balb/C mice [1]; [7]
  Sleep time M ± SD: 99.29 ± 19.23*^& min
  Tolerance time M ± SD: 26.28 ± 17.49 min
Balb/C mice [1]; [8]
  Dead number: 0 piece
  Rate of drunk: 0%
Balb/C mice [1]; 2 mg/kg gavage 30 min after alcohol
  sleep time in drunk mice comparing with DHM: remarkably shorten
Balb/C mice [2]; [9]
  Sleep time M ± SD: 69.29 ± 48.40 min
  Tolerance time M ± SD: 43.29 ± 23.44 min
Balb/C mice [2]; [10]
  Dead number: 0 piece
  Rate of drunk: 0%
Balb/C mice [2]; [11]
  holding time comparing with DHM: shorten
  tolerance time of righting reflex disappearing comparing with DHM: obviously prolonged
Mice [3]; mice at MTD, end of 7-day observation
  pathological examination of stomach, liver, kidney: no obvious degeneration, necrosis and other changes
Mice [3]; mice of the toxicity experiments
  pathology changes in livers, kidneys, hearts and lungs: No degeneration and necrosis pathology changes
Mice [3]; mice, gavage three times a day, 7 days
  deaths during the observation period at MTD: No deaths
Mice [4]; TDHM 636 mg/kg i.p.
  Dead number: 0
  mortality: 0%
Mice [4]; TDHM 636 mg/kg i.p., D1
  average dietary of mice: 3.62 g
Mice [4]; TDHM 636 mg/kg i.p., D2
  average dietary of mice: 4.67 g
Mice [4]; TDHM 636 mg/kg i.p., D3
  average dietary of mice: 5.33 g
Mice [4]; TDHM 636 mg/kg i.p., D4
  average dietary of mice: 6.4 g
Mice [4]; TDHM 636 mg/kg i.p., D5
  average dietary of mice: 5.53 g
Mice [4]; TDHM 636 mg/kg i.p., D6
  average dietary of mice: 5.18 g
Mice [4]; TDHM 636 mg/kg i.p., D7
  average dietary of mice: 5.44 g
Mice [4]; TDHM 674.16 mg/kg i.p.
  Dead number: 4
  mortality: 20%
Mice [4]; TDHM 674.16 mg/kg i.p., D1
  average dietary of mice: 3.96 g
Mice [4]; TDHM 674.16 mg/kg i.p., D2
  average dietary of mice: 4.8 g
Mice [4]; TDHM 674.16 mg/kg i.p., D3
  average dietary of mice: 6.7 g
Mice [4]; TDHM 674.16 mg/kg i.p., D4
  average dietary of mice: 6.98 g
Mice [4]; TDHM 674.16 mg/kg i.p., D5
  average dietary of mice: 5.58 g
Mice [4]; TDHM 674.16 mg/kg i.p., D6
  average dietary of mice: 5.58 g
Mice [4]; TDHM 674.16 mg/kg i.p., D7
  average dietary of mice: 5.73 g
Mice [4]; TDHM 714.61 mg/kg i.p.
  Dead number: 4
  mortality: 20%
Mice [4]; TDHM 714.61 mg/kg i.p., D1
  average dietary of mice: 3.62 g
Mice [4]; TDHM 714.61 mg/kg i.p., D2
  average dietary of mice: 5.42 g
Mice [4]; TDHM 714.61 mg/kg i.p., D3
  average dietary of mice: 6.55 g
Mice [4]; TDHM 714.61 mg/kg i.p., D4
  average dietary of mice: 7.06 g
Mice [4]; TDHM 714.61 mg/kg i.p., D5
  average dietary of mice: 5.49 g
Mice [4]; TDHM 714.61 mg/kg i.p., D6
  average dietary of mice: 5.17 g
Mice [4]; TDHM 714.61 mg/kg i.p., D7
  average dietary of mice: 5.2 g
Mice [4]; TDHM 757.49 mg/kg i.p.
  Dead number: 8
  mortality: 40%
Mice [4]; TDHM 757.49 mg/kg i.p., D1
  average dietary of mice: 3.95 g
Mice [4]; TDHM 757.49 mg/kg i.p., D2
  average dietary of mice: 5.3 g
Mice [4]; TDHM 757.49 mg/kg i.p., D3
  average dietary of mice: 7.08 g
Mice [4]; TDHM 757.49 mg/kg i.p., D4
  average dietary of mice: 8.18 g
Mice [4]; TDHM 757.49 mg/kg i.p., D5
  average dietary of mice: 5.78 g
Mice [4]; TDHM 757.49 mg/kg i.p., D6
  average dietary of mice: 5.83 g
Mice [4]; TDHM 757.49 mg/kg i.p., D7
  average dietary of mice: 6.25 g
Mice [4]; TDHM 802.94 mg/kg i.p.
  Dead number: 18
  mortality: 90%
Mice [4]; TDHM 802.94 mg/kg i.p., D1
  average dietary of mice: 4.6 g
Mice [4]; TDHM 802.94 mg/kg i.p., D2
  average dietary of mice: 7.66 g
Mice [4]; TDHM 802.94 mg/kg i.p., D3
  average dietary of mice: 7.08 g
Mice [4]; TDHM 802.94 mg/kg i.p., D4
  average dietary of mice: 9.04 g
Mice [4]; TDHM 802.94 mg/kg i.p., D5
  average dietary of mice: 6.89 g
Mice [4]; TDHM 802.94 mg/kg i.p., D6
  average dietary of mice: 6.23 g
Mice [4]; TDHM 802.94 mg/kg i.p., D7
  average dietary of mice: 6.27 g
Mice [4]; TDHM 851.11 mg/kg i.p.
  Dead number: 20
  mortality: 100%
Mice [4]; TDHM 851.11 mg/kg i.p., D1
  average dietary of mice: 0 g
Mice [4]; TDHM 851.11 mg/kg i.p., D2
  average dietary of mice: 0 g
Mice [4]; TDHM 851.11 mg/kg i.p., D3
  average dietary of mice: 0 g
Mice [4]; TDHM 851.11 mg/kg i.p., D4
  average dietary of mice: 0 g
Mice [4]; TDHM 851.11 mg/kg i.p., D5
  average dietary of mice: 0 g
Mice [4]; TDHM 851.11 mg/kg i.p., D6
  average dietary of mice: 0 g
Mice [4]; TDHM 851.11 mg/kg i.p., D7
  average dietary of mice: 0 g
Mice [4]; mice
  effect on dietary and body weight: no significant effect
Mice [4]; mice, i.p., observed 7 days
  LD50: 748.69 mg/kg
Balb/C mice [5]
  blood alcohol concentration vs control group treated with saline: significantly decreased
  reduction of blood alcohol concentration compared with DHM: better beneficial effect than DHM
Balb/C mice [6]
  climbing time vs normal control mice: significantly prolonged
Balb/C mice [6]; vertical metal net
  climbing: 471.5 ± 155.89 min
